pIC50: −log10 of the molar value.
Experiments:
Experiment in all cases: In vitro cytotoxicity assay (MTT)
Format in all cases: cell-based, human
BT-474 = conditions: BT-474, 6 days incubation, MTT
Procedure: (§1) In vitro cytotoxicity of compounds of the disclosure was assessed on several cancerous human cell lines. Cells were plated in 96-well plates at an appropriate density depending on the cell line (between 1000 and 10 000 cells/well in 100µL of appropriate culture media) and incubated at 37°C for 24 hours. Serial dilutions of the tested compound previously dissolved in culture media (50µL) were added, and incubation was carried at 37°C out for 6 days. MTT (5mg/mL in PBS, 20µL, Sigma-Aldrich) was added into the wells, and incubation was continued for 1 to 4 hours at 37°C. Culture media was then carefully removed, and well content was homogeneously dissolved with acidified isopropanol. Absorbance values were measured on a microplate reader using a wavelength of 570 nm (with a reference wavelength of 690 nm). The IC50 concentration values compared to untreated control cells were determined using inhibition dose response curve fitting (GraphPad Prism 9). Exatecan mesylate (cat#HY-13631A) and CR8 (CAS# 294646-77-8; cat#HY-18340) were purchased from MedChemExpress (China).

JIMT-1 = conditions: 6 days incubation
Procedure: as §1

MDA-MB-231 = conditions: 6 days incubation
Procedure: as §1

MDA-MB-453 = conditions: 6 days incubation
Procedure: as §1

NCI-N87 = conditions: 6 days incubation
Procedure: as §1

SKBR-3 = conditions: 6 days incubation
Procedure: as §1

[1] = Homo sapiens, MDA-MB-231, 144 h
[2] = Homo sapiens, MDA-MB-453, 144 h

SMILES	pIC50 (BT-474; Homo sapiens, BT-474, 144 h)	pIC50 (JIMT-1; Homo sapiens, 144 h)	pIC50 (MDA-MB-231; [1])	pIC50 (MDA-MB-453; [2])	pIC50 (NCI-N87; Homo sapiens, NCI-N87, 144 h)	pIC50 (SKBR-3; Homo sapiens, SK-BR-3, 144 h)	pIC50 (BT-474)	pIC50 (JIMT-1)	pIC50 (MDA-MB-231)	pIC50 (MDA-MB-453)	pIC50 (NCI-N87)	pIC50 (SKBR-3)
N[C@H]1CC[C@H](Nc2nc(NCc3ccc(-c4ccccn4)cc3)n3ncc(I)c3n2)CC1 [Compound 2590]	8.88	9.54	9.13	8.75	8.62	8.59						
N[C@H]1CCCC[C@H]1Nc1nc(NCc2ccc(-c3ccccn3)cc2)n2ncc(Br)c2n1 [Compound 2672]	8.67		9.34	9.12	9.26	9.62						
Brc1cnn2c(NCc3ccc(-c4ccccn4)cc3)nc(N[C@@H]3CCNC3)nc12 [Compound 2656]	8.60		9.19	8.95	8.85	9.77						
N#Cc1cnn2c(NCc3ccc(-c4ccccn4)cc3)nc(N[C@H]3CC[C@H](N)CC3)nc12 [Compound 2478]							8.76	8.93	8.79	8.87	8.16	7.75
Brc1cnn2c(NCc3ccc(-c4ccccn4)cc3)nc(N[C@@H]3CCCNC3)nc12 [Compound 2660, 8-bromo-N2-[(3R)-piperidin-3-yl]-N4-{[4-(pyridin-2-yl)phenyl]methyl}pyrazolo[1,5-a][1 ,3,5]triazine-2,4-diamine]							8.90		9.37	9.17	9.31	9.96
Nc1ccc(Nc2nc(NCc3ccc(-c4ccccn4)cc3)n3ncc(Br)c3n2)cc1 [Compound 2584]	8.01	8.12	8.14	7.91	8.03	7.59						
N[C@H]1CC[C@H](Nc2nc(Nc3ccc(CN4CCOCC4)cc3)n3ncc(Br)c3n2)CC1 [Compound 2533]	< 7.00	< 7.00	< 7.00	< 7.00	< 7.00	< 7.00						
Brc1cnn2c(NCc3ccc(-c4ccccn4)cc3)nc(N[C@H]3CCNC3)nc12 [Compound 2657]							8.77		9.25	9.11	9.37	9.89
Brc1cnn2c(NCc3ccc(-c4ccccn4)cc3)nc(NCC3CCNCC3)nc12 [Compound 2569]	7.82	8.17	7.95	7.89	7.71	7.20						
NCCCNc1nc(NCc2ccc(-c3ccccn3)cc2)n2ncc(Br)c2n1 [Compound 2658]	8.34		8.70	8.11	8.19	9.11						
NCCNc1nc(NCc2ccc(-c3ccccn3)cc2)n2ncc(Br)c2n1 [Compound 2638]	9.11		9.52	9.06	9.38	9.09						
Brc1cnn2c(Nc3ccc(CN4CCOCC4)cc3)nc(NC3CCNCC3)nc12 [Compound 2554]							< 7.00	< 7.00	< 7.00	< 7.00	< 7.00	< 7.00
Brc1cnn2c(NCc3ccc(-c4ccccn4)cc3)nc(N[C@@H]3CCCNC3)nc12 [Compound 2659, 8-bromo-N2-[(3R)-piperidin-3-yl]-N4-{[4-(pyridin-2-yl)phenyl]methyl}pyrazolo[1 ,5-a][1 ,3,5]triazine-2,4-diamine]	9.14		9.59	9.40	9.47							9.14
O[C@H]1CN[C@H](CNc2nc(NCc3ccc(-c4ccccn4)cc3)n3ncc(Br)c3n2)C1 [Compound 2538]	8.18	8.29	8.06	8.09	7.67	7.41						
N[C@H]1CC[C@H](Nc2nc(NCc3ccc(-c4ccccn4)cc3)n3ncc(Br)c3n2)C1 [Compound 2669]	8.76		9.36	9.23	9.41	9.17						
